From ChEMBL document CHEMBL5390204, “Persephacin Is a Broad-Spectrum Antifungal Aureobasidin Metabolite That Overcomes Intrinsic Resistance in Aspergillus fumigatus” (J Nat Prod, 2023)
Values after ≈ are worked out from the molar mass of the structure shown.

Legend:
[1] = test system: Candida albicans; assay: Antifungal activity against Candida albicans SC5314 assessed as reduction in fungal growth incubated for 48 hrs by microplate reader analysis; type: functional
[2] = test system: Nakaseomyces glabratus; assay: Antifungal activity against Candida glabrata 2 assessed as inhibition in fungal growth incubated for 48 hrs by microplate reader analysis; type: functional
[3] = test system: [Candida] auris; assay: Antifungal activity against multidrug-resistant Candida auris 381 assessed as inhibition in fungal growth incubated for 48 hrs by microplate reader analysis; type: functional; settings: Candidozyma auris
[4] = test system: Pichia kudriavzevii; assay: Antifungal activity against Candida krusei ATCC 6258 (Y-7179) assessed as reduction in fungal viability incubated for 48 hrs by microplate reader analysis; type: functional
[5] = test system: Aspergillus flavus; assay: Antifungal activity against Aspergillus flavus NRRL485 assessed as reduction in fungal viability incubated for 48 hrs by microplate reader analysis; type: functional
[6] = test system: Pichia kudriavzevii; assay: Antifungal activity against Candida krusei 25 assessed as inhibition in fungal growth incubated for 48 hrs by microplate reader analysis; type: functional
[7] = test system: Candida albicans; assay: Antifungal activity against Candida albicans 5 assessed as inhibition in fungal growth incubated for 48 hrs by microplate reader analysis; type: functional
[8] = test system: Clavispora lusitaniae; assay: Antifungal activity against multidrug-resistant Candida lusitaniae 398 assessed as inhibition in fungal growth incubated for 48 hrs by microplate reader analysis; type: functional
[9] = test system: Paecilomyces lilacinus; assay: Antifungal activity against Paecilomyces lilacinus 165E10 assessed as reduction in fungal viability incubated for 48 hrs by microplate reader analysis; type: functional, Purpureocillium lilacinum
[10] = test system: Fusarium solani; assay: Antifungal activity against Fusarium solani 243G2 assessed as reduction in fungal growth incubated for 48 hrs by microplate reader analysis; type: functional
[11] = test system: Nakaseomyces glabratus; assay: Antifungal activity against Candida glabrata 11 assessed as inhibition in fungal growth incubated for 48 hrs by microplate reader analysis; type: functional
[12] = test system: Pichia kudriavzevii; assay: Antifungal activity against multidrug-resistant Candida krusei 397 assessed as inhibition in fungal growth incubated for 48 hrs by microplate reader analysis; type: functional
[13] = test system: Aspergillus fumigatus; assay: Antifungal activity against Aspergillus fumigatus MYA 3627 assessed as reduction in fungal viability incubated for 48 hrs by microplate reader analysis; type: functional
[14] = test system: [Candida] auris; assay: Antifungal activity against multidrug-resistant Candida auris 381 assessed as inhibition in fungal growth incubated for 48 hrs in presence of 0% serum by microplate reader analysis; type: functional; settings: Candidozyma auris
[15] = test system: Nakaseomyces glabratus; assay: Antifungal activity against Candida glabrata 16 assessed as inhibition in fungal growth incubated for 48 hrs by microplate reader analysis; type: functional
[16] = test system: Candida albicans; assay: Antifungal activity against Candida albicans 24 assessed as inhibition in fungal growth incubated for 48 hrs by microplate reader analysis; type: functional
[17] = test system: Candida duobushaemulonii; assay: Antifungal activity against multidrug-resistant Candida duobushaemulonii 394 assessed as inhibition in fungal growth incubated for 48 hrs by microplate reader analysis; type: functional; settings: Candidozyma duobushaemuli
[18] = test system: Candida albicans; assay: Antifungal activity against Candida albicans 3 assessed as inhibition in fungal growth incubated for 48 hrs by microplate reader analysis; type: functional
[19] = test system: [Candida] haemuloni; assay: Antifungal activity against multidrug-resistant Candida haemulonii 393 assessed as inhibition in fungal growth incubated for 48 hrs by microplate reader analysis; type: functional; settings: Candidozyma haemuli
[20] = test system: Aspergillus fumigatus; assay: Antifungal activity against Aspergillus fumigatus ATCC MYA-3627 assessed as inhibition in fungal growth incubated for 48 hrs in presence of 10% serum by microplate reader analysis; type: functional
[21] = test system: Candida albicans; assay: Antifungal activity against Candida albicans ATCC 10231 assessed as reduction in fungal viability incubated for 48 hrs by microplate reader analysis; type: functional
[22] = test system: Aspergillus fumigatus; assay: Antifungal activity against Aspergillus fumigatus NRRL6113 assessed as reduction in fungal viability incubated for 48 hrs by microplate reader analysis; type: functional
[23] = test system: Candida albicans; assay: Antifungal activity against Candida albicans 14 assessed as inhibition in fungal growth incubated for 48 hrs by microplate reader analysis; type: functional
[24] = test system: Candida albicans; assay: Antifungal activity against Candida albicans 1 assessed as inhibition in fungal growth incubated for 48 hrs by microplate reader analysis; type: functional
[25] = test system: Candida albicans; assay: Antifungal activity against Candida albicans 8 assessed as inhibition in fungal growth incubated for 48 hrs by microplate reader analysis; type: functional
[26] = test system: Aspergillus niger; assay: Antifungal activity against Aspergillus niger FGSC A732 assessed as reduction in fungal growth incubated for 48 hrs by microplate reader analysis; type: functional
[27] = test system: [Candida] auris; assay: Antifungal activity against multidrug-resistant Candida auris 386 assessed as inhibition in fungal growth incubated for 48 hrs by microplate reader analysis; type: functional; settings: Candidozyma auris
[28] = test system: Rhizopus arrhizus; assay: Antifungal activity against Rhizopus oryzae FGSC 9543 assessed as reduction in fungal viability incubated for 48 hrs by microplate reader analysis; type: functional
[29] = test system: Candida duobushaemulonii; assay: Antifungal activity against multidrug-resistant Candida duobushaemulonii 392 assessed as inhibition in fungal growth incubated for 48 hrs by microplate reader analysis; type: functional; settings: Candidozyma duobushaemuli
[30] = test system: [Candida] auris; assay: Antifungal activity against multidrug-resistant Candida auris 388 assessed as inhibition in fungal growth incubated for 48 hrs by microplate reader analysis; type: functional; settings: Candidozyma auris
[31] = test system: Cryptococcus neoformans; assay: Antifungal activity against Cryptococcus neoformans H99 assessed as reduction in fungal growth incubated for 48 hrs by microplate reader analysis; type: functional
[32] = test system: Cryptococcus neoformans; assay: Antifungal activity against Cryptococcus neoformans H99 assessed as inhibition in fungal growth incubated for 48 hrs in presence of 10% serum by microplate reader analysis; type: functional
[33] = test system: Candida parapsilosis; assay: Antifungal activity against Candida parapsilosis 28 assessed as inhibition in fungal growth incubated for 48 hrs by microplate reader analysis; type: functional; settings: Lodderomyces parapsilosis
[34] = test system: Pichia kudriavzevii; assay: Antifungal activity against Candida krusei ATCC 6258 (Y-7179) assessed as reduction in fungal growth incubated for 48 hrs by microplate reader analysis; type: functional
[35] = test system: Candida parapsilosis; assay: Antifungal activity against Candida parapsilosis 23 assessed as inhibition in fungal growth incubated for 48 hrs by microplate reader analysis; type: functional; settings: Lodderomyces parapsilosis
[36] = test system: Aspergillus flavus; assay: Antifungal activity against Aspergillus flavus NRRL485 assessed as reduction in fungal growth incubated for 48 hrs by microplate reader analysis; type: functional
[37] = test system: [Candida] auris; assay: Antifungal activity against multidrug-resistant Candida auris 390 assessed as inhibition in fungal growth incubated for 48 hrs by microplate reader analysis; type: functional; settings: Candidozyma auris
[38] = test system: Candida parapsilosis; assay: Antifungal activity against Candida parapsilosis 9 assessed as inhibition in fungal growth incubated for 48 hrs by microplate reader analysis; type: functional; settings: Lodderomyces parapsilosis
[39] = test system: Candida tropicalis; assay: Antifungal activity against Candida tropicalis ATCC750 (Y-12699) assessed as reduction in fungal viability incubated for 48 hrs by microplate reader analysis; type: functional
[40] = test system: Candida parapsilosis; assay: Antifungal activity against Candida parapsilosis 7 assessed as inhibition in fungal growth incubated for 48 hrs by microplate reader analysis; type: functional; settings: Lodderomyces parapsilosis
[41] = test system: [Candida] auris; assay: Antifungal activity against multidrug-resistant Candida auris 383 assessed as inhibition in fungal growth incubated for 48 hrs by microplate reader analysis; type: functional; settings: Candidozyma auris
[42] = test system: Cryptococcus neoformans; assay: Antifungal activity against Cryptococcus neoformans H99 assessed as inhibition in fungal growth incubated for 48 hrs in presence of 0% serum by microplate reader analysis; type: functional
[43] = test system: Candida albicans; assay: Antifungal activity against Candida albicans 21 assessed as inhibition in fungal growth incubated for 48 hrs by microplate reader analysis; type: functional
[44] = test system: Candida albicans; assay: Antifungal activity against Candida albicans SC5314 assessed as reduction in fungal viability incubated for 48 hrs by microplate reader analysis; type: functional
[45] = test system: Candida albicans; assay: Antifungal activity against Candida albicans 30 assessed as inhibition in fungal growth incubated for 48 hrs by microplate reader analysis; type: functional

CC[C@H](C)C[C@H](C)C[C@H](C)C[C@@H]1NC(=O)[C@H](C(C)C)N(C)C(=O)[C@@H]([C@H](C)CC)OC(=O)[C@H](C(C)(C)O)N(C)C(=O)[C@H](CC(C)C)NC(=O)[C@H](C(C)C)N(C)C(=O)[C@H]([C@H](C)CC)NC(=O)[C@@H]2CCCN2C(=O)CN(C)C1=O
MFC [1]: 1.3 µM (≈ 1.4 µg/mL) | MIC80 [1]: 0.3 µM (≈ 0.323 µg/mL) | MIC80 [2]: 0.2 µM (≈ 0.215 µg/mL) | MIC80 [3]: 2.5 µM (≈ 2.69 µg/mL) | MFC<=99.9 [4]: 2.5 µM (≈ 2.69 µg/mL) | MFC<=99.9 [5]: >10 µM | MIC80 [6]: 1.3 µM (≈ 1.4 µg/mL) | MIC80 [7]: 1.3 µM (≈ 1.4 µg/mL) | MIC80 [8]: 2.5 µM (≈ 2.69 µg/mL) | MFC<=99.9 [9]: >10 µM | MFC [10]: 2.5 µM (≈ 2.69 µg/mL) | MIC80 [10]: 1.3 µM (≈ 1.4 µg/mL) | MIC80 [11]: 0.6 µM (≈ 0.645 µg/mL) | MIC80 [12]: 2.5 µM (≈ 2.69 µg/mL) | MFC<=99.9 [13]: 5 µM (≈ 5.38 µg/mL) | MIC80 [14]: 1.3 µM | MIC80 [15]: 0.3 µM (≈ 0.323 µg/mL) | MIC80 [16]: 0.6 µM (≈ 0.645 µg/mL) | MIC80 [17]: 2.5 µM (≈ 2.69 µg/mL) | MIC80 [18]: 2.5 µM (≈ 2.69 µg/mL) | MIC80 [19]: 0.3 µM (≈ 0.323 µg/mL) | MIC80 [20]: 2.5 µM | MFC<=99.9 [21]: 1.3 µM (≈ 1.4 µg/mL) | MFC<=99.9 [22]: 5 µM (≈ 5.38 µg/mL) | MIC80 [23]: 0.6 µM (≈ 0.645 µg/mL) | MIC80 [24]: 2.5 µM (≈ 2.69 µg/mL) | MIC80 [25]: 0.6 µM (≈ 0.645 µg/mL) | MFC [26]: > 10 µM | MIC80 [26]: 1.3 µM (≈ 1.4 µg/mL) | MIC80 [27]: 2.5 µM (≈ 2.69 µg/mL) | MFC<=99.9 [28]: >10 µM | MIC80 [29]: 2.5 µM (≈ 2.69 µg/mL) | MIC80 [30]: 2.5 µM (≈ 2.69 µg/mL) | MFC [31]: 2.5 µM (≈ 2.69 µg/mL) | MIC80 [31]: 0.6 µM (≈ 0.645 µg/mL) | MIC80 [32]: < 0.2 µM | MIC80 [33]: 2.5 µM (≈ 2.69 µg/mL) | MFC [34]: 2.5 µM (≈ 2.69 µg/mL) | MIC80 [34]: 1.3 µM (≈ 1.4 µg/mL) | MIC80 [35]: 2.5 µM (≈ 2.69 µg/mL) | MFC [36]: > 10 µM | MIC80 [36]: 1.3 µM (≈ 1.4 µg/mL) | MIC80 [37]: 2.5 µM (≈ 2.69 µg/mL) | MIC80 [38]: 2.5 µM (≈ 2.69 µg/mL) | MFC<=99.9 [39]: 2.5 µM (≈ 2.69 µg/mL) | MIC80 [40]: 2.5 µM (≈ 2.69 µg/mL) | MIC80 [41]: 2.5 µM (≈ 2.69 µg/mL) | MIC80 [42]: 0.6 µM | MIC80 [43]: 1.3 µM (≈ 1.4 µg/mL) | MFC<=99.9 [44]: 1.3 µM (≈ 1.4 µg/mL) | MIC80 [45]: 5 µM (≈ 5.38 µg/mL)
